Data taken from patent US20100210649A1, “PYRIDAZINONES AND FURAN-CONTAINING COMPOUNDS” (Sloan-Kettering Institute for Cancer Research, priority 2006, published 2010).
Several values for one entry are separate records, joined by “and”; a condition that tells them apart may be missing. Equal values may be shown once. Read-outs that look alike come from different tables or passages of the source.

Key:
[1] = tested on: H1975; assay: Non Small Cell Lung Cancer proliferation assay (Alamar Blue reduction), H1975; format: cell-based, human; settings: for inhibition at 10 µM: NCI-H1975, primary screening, H1975, read-out: PRIMARY HTS [%] H1975 (percentage inhibition); for inhibition at 10 µM / CONFIRMATION [%] 1975: 10 μM compound in 1% DMSO (v/v); for CONFIRMATION [%] 1975: percentage inhibition
Method in brief: (§1)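 Dose-response run: cells were counted, dispensed at 250 cells/well onto compound, incubated 48 hours at 37° C, then incubated with Alamar Blue for an additional 48 hours before fluorescence measurement. All wells held 1% DMSO final.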

[2] = tested on: H1650; assay: Non Small Cell Lung Cancer proliferation assay (Alamar Blue reduction), H1650; format: cell-based, human; settings: for IC50: read-out: IC50(uM) 1650; for inhibition at 10 µM: NCI-H1650, primary screening, H1650, read-out: PRIMARY HTS [%] H1650 (percentage inhibition); for inhibition at 10 µM / CONFIRMATION [%] 1650: 10 μM compound in 1% DMSO (v/v); for CONFIRMATION [%] 1650: percentage inhibition
Method in brief: as §1

[3] = tested on: NHBE (normal human bronchiolar epithelial cells); assay: cells; settings: Homo sapiens, NHBE, read-out: IC50(uM) NHBE, phenylfuran-2-carboxamide SAR summary
Protocol: NHBE (normal human bronchiolar epithelial cells) are primary cells obtained from donor lungs and commercially available from Cambrex. The HPL1D (human peripheral lung epithelial) cell line has been immortalized with the SV40 large T-antigen. WI-38: human lung fibroblast cell line. HPLID, NHBE and WI-38 cells will serve as controls in the chemical screens. WT: wildtype; WT*: over-expressed wildtype.
Compounds were tested in dose response studies from […] to 5 nM against several non small cell lung cancer lines: H358, H827, H1118, H1650, H1734, H1975, H2030, and H3255, and were also studied in a 72 hour cytotoxicity assay against the NHBE and WI-38 cell lines.

[4] = tested on: H3255; assay: Non Small Cell Lung Cancer proliferation assay (Alamar Blue reduction), H3255; format: cell-based, human; settings: for inhibition at 10 µM: NCI-H3255, primary screening, H3255, read-out: PRIMARY HTS [%] H3255 (percentage inhibition); for inhibition at 10 µM / CONFIRMATION [%] 3255: 10 μM compound in 1% DMSO (v/v); for CONFIRMATION [%] 3255: percentage inhibition
Method in brief: as §1

[5] = tested on: H2030; assay: Non Small Cell Lung Cancer proliferation assay (Alamar Blue reduction), H2030; format: cell-based, human; settings: for inhibition at 10 µM: NCI-H2030, primary screening, H2030, read-out: PRIMARY HTS [%] H2030 (percentage inhibition); for inhibition at 10 µM / CONFIRMATION [%] 2030: 10 μM compound in 1% DMSO (v/v); for CONFIRMATION [%] 2030: percentage inhibition
Method in brief: as §1

[6] = Homo sapiens, NCI-H1650, phenylfuran-2-carboxamide SAR summary

SMILES	inhibition at 10 µM ([1]; Homo sapiens) [%]	CONFIRMATION [%] 1975 [1]	IC50 [2, 6] [µM]	inhibition at 10 µM ([2]; Homo sapiens) [%]	CONFIRMATION [%] 1650 [2]	IC50 ([2]; phenylfuran-2-carboxamide SAR summary) [µM]	IC50 [3] [µM]	inhibition at 10 µM ([4]; Homo sapiens) [%]	CONFIRMATION [%] 3255 [4] [%]	inhibition at 10 µM ([5]; Homo sapiens) [%]	CONFIRMATION [%] 2030 [5]	IC50 ([1]; Homo sapiens, NCI-H1975, phenylfuran-2-carboxamide SAR summary, read-out: IC50(uM) 1975) [µM]	IC50 ([4]; Homo sapiens, NCI-H3255, phenylfuran-2-carboxamide SAR summary, read-out: IC50(uM) 3255) [µM]	IC50 ([5]; Homo sapiens, NCI-H2030, phenylfuran-2-carboxamide SAR summary, read-out: IC50(uM) 2030) [µM]
O=C(Nc1ccc(Cl)cc1C(F)(F)F)c1ccc([N+](=O)[O-])o1 [compound 64228]	82	70% and 97%	1.6	87	111% and 107%	2.31	13.2	91	97	93	90% and 105%			
O=C(NC1CCCCC1)c1ccc([N+](=O)[O-])o1 [compound 71763]	61	74%	1.39	87	136%		24.9	77	135	82	97%	3.54	2.98	3.79
